Measured values reported in paper PMC7837296, “A novel LysR‐type regulator negatively affects biosynthesis of the immunosuppressant brasilicardin” (Engineering in Life Sciences, 2020).

Tests used:
LysRNt (LysRNtHis6) [1] = molecular target: T1, LysRNt (LysRNtHis6) (Nocardia terpenica, UniProt A0A164MN72); experiment: fluorescence thermal shift, SYPRO Orange; assay type: binding; conditions: read-out: dTmD at 0.6 mM
T1 construct: gene AWN90_33365; full length, C-terminal His6 tag kept (pET-21a(+)lysRNt), E. coli Rosetta 2(DE3), Talon column; only monomer seen; re-annotated start (not the N-terminally extended lysRlnNt)
T1 sequence (A0A164MN72 1-303): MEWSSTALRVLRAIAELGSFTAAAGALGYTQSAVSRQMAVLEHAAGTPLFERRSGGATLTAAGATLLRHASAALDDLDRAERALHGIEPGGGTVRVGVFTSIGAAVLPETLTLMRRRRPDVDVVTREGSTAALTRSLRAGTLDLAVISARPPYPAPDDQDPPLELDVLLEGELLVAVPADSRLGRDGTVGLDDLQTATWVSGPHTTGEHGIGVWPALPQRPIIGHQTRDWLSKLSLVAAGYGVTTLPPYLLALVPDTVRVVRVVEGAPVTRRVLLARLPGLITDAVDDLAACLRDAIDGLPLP

LysRNt (LysRNtHis6) [2] = molecular target: T1, LysRNt (LysRNtHis6); experiment: EMSA with […]-labelled bra12p DNA; assay type: binding; conditions: 500 nM protein, PBS, 1% ethanol

Structure (SMILES) | ΔTm at 600 µM (LysRNt (LysRNtHis6) [1]) | % DNA-protein complex remaining at 1 mM (LysRNt (LysRNtHis6) [2]; compound lowers DNA binding) | % DNA-protein complex remaining at 1 mM (LysRNt (LysRNtHis6) [2]; weak effect)
O=C(O)c1ccccc1O [compound 4, salicylic acid] | 0.74 °C | 47% | –
O=C(O)c1ccccc1 [compound 2, sodium benzoate] | 0.19 °C | – | 84%
O=C(O)c1cccc(O)c1 [compound 5, 3-hydroxybenzoic acid] | 0.17 °C | – | 86%
